Test results taken from US20130040882A1, “USE OF FIBROBLAST GROWTH FACTOR FRAGMENTS” (NOVARTIS AG, priority 2003, published 2013).
Where “and” joins values, the source holds several entries; their conditions need not be identical. Equal values may be shown once.

Assay: Salmon calcitonin/PTS893 monkey study: urinalysis; on NTx/Crea: test concentration or dose not given here; on Pyr/Crea: test concentration or dose not given here
Details: urine
[1] = female monkeys, day 13 of dosing
[2] = female monkeys, day −7 relative to start of dosing
[3] = female monkeys, day −8 relative to start of dosing
[4] = male monkeys, day −5 relative to start of dosing
[5] = male monkeys, day −6 relative to start of dosing

Leu8, Asp10, Lysll, A1a16, G1n18, Thr33, A1a34 human PTH 1-34 [PTS893, Leu8, Asp10, Lysll, A1a16, G1n18, Thr33, A1a34 human PTH 1-34 [hPTH(1-34)]]
CREAT [1]: 5620 µmol/L and 8060 µmol/L | Ca2+ [1]: 20.05 mmol/L and 12.35 mmol/L | Cl− [1]: 101 mmol/L and 133 mmol/L | D-PYR [1]: 1356 nmol/L and 2036 nmol/L | LDH [1]: 10.0 IU/L and 9.0 IU/L | Mg2+ [1]: 6.90 mmol/L and 5.90 mmol/L | NTx/Crea [1]: 447 nME/mM and 705 nME/mM | Pyr/Crea [1]: 241 nM/mM and 253 nM/mM | VOLUME [1]: 52 mL and 42 mL | NTx/Crea [2]: 576 nME/mM and 634 nME/mM | Pyr/Crea [2]: 163 nM/mM and 181 nM/mM | CREAT [3]: 19160 µmol/L and 14060 µmol/L | Ca2+ [3]: 11.50 mmol/L and 6.60 mmol/L | K+ [3]: 302 mmol/L and 164 mmol/L | LDH [3]: 11.0 IU/L and 18.0 IU/L | Mg2+ [3]: 7.35 mmol/L and 4.00 mmol/L | Na+ [3]: 145 mmol/L and 118 mmol/L | Ca2+ (male monkeys, day 13 of dosing): 7.55 mmol/L and 13.10 mmol/L | I.PHOS (male monkeys, day 13 of dosing): 0.10 mmol/L and 0.17 mmol/L | K+ (male monkeys, day 13 of dosing): 107 mmol/L and 69 mmol/L | LDH (male monkeys, day 13 of dosing): 14.0 IU/L and 19.0 IU/L | Mg2+ (male monkeys, day 13 of dosing): 8.70 mmol/L and 5.25 mmol/L | NAG (male monkeys, day 13 of dosing): 2.9 IU/l and 2.6 IU/l | NTx/Crea (male monkeys, day 13 of dosing): 621 nME/mM and 547 nME/mM | Pyr/Crea (male monkeys, day 13 of dosing): 214 nM/mM and 204 nM/mM | CREAT [4]: 16160 µmol/L and 16120 µmol/L | CTx [4]: 11865 µg/L and 20108 µg/L | D-PYR [4]: 1660 nmol/L and 2278 nmol/L | NTx [4]: 5403 nM BCE and 8757 nM BCE | NTx/Crea [4]: 334 nME/mM and 543 nME/mM | Pyr/Crea [4]: 103 nM/mM and 141 nM/mM | CREAT [5]: 16160 µmol/L and 9940 µmol/L | Ca2+ [5]: 5.10 mmol/L and 3.50 mmol/L | K+ [5]: 86 mmol/L and 125 mmol/L | LDH [5]: 7.0 IU/L and 9.0 IU/L
